The values that follow come from patent US20070092551A1, “Therapeutic agent” (TAKARA BIO INC., priority 2003, published 2007).

Read-outs that look alike come from different tables or passages of the source. Where only a bound is given, the exact number is not on record here.

This experiment has as its system mature adipocytes (3T3-L1 cells). Briefly: Enhancing action on glucose uptake (2-deoxyglucose) into mature adipocytes. The class given is cell-based. Particulars: Mus musculus.
Where [1] appears, read: 3T3-L1, read-out: Enhancing Action on Glucose Uptake.
Setting [2] is: 3T3-L1, 10 μM, X=(S−N)/(P−N) of 2-deoxyglucose uptake, P=insulin 1 μg/mL, read-out: Enhancing Action on Glucose Uptake.
[3] abbreviates: 3T3-L1, 30 μM, X=(S−N)/(P−N) of 2-deoxyglucose uptake, P=insulin 1 μg/mL, read-out: Enhancing Action on Glucose Uptake.

In the case of `COc1ccc(C(=O)/C=C/c2ccc(O)cc2)c(O)c1CC=C(C)C` [4-Hydroxyderricin, 4,2′-Dihydroxy-3′-prenyl-4′-methoxychalcone], under setting [1], the activation at 3 µM lay in the range of 60 to 100%, the activation at 10 µM was > 100% and the activation at 30 µM is > 100%.
As for `COc1ccc(C(=O)/C=C/c2ccc(O)cc2)c(O)c1C/C=C(\C)CCC=C(C)C` [Xanthoangelol F, 4,2′-Dihydroxy-3′-geranyl-4′-methoxychalcone], the activation at 3 µM (3T3-L1, 3 μM, X=(S−N)/(P−N) of 2-deoxyglucose uptake, P=insulin 1 μg/mL, read-out: Enhancing Action on Glucose Uptake) fell in the range of 30 to 60%. Besides, under setting [2], the activation at 10 µM was > 100%. In addition, under setting [3], the activation at 30 µM is > 100%.
As for `COc1ccc(C(=O)/C=C/c2ccc(O)cc2)c2c1CC(O)C(C)(C)O2` (stereo not drawn) [Xanthoangelol H], the activation at 30 µM under setting [3] was 30 to 60%.
Consider `CC(C)=CCC/C(C)=C/Cc1c(O)ccc(C(=O)/C=C/c2ccc(O)cc2)c1O` [Xanthoangelol, 4,2′,4′-Trihydroxy-3′-geranylchalcone], for which the activation at 10 µM under setting [2] is 30 to 60%. For the same molecule, the activation at 30 µM under setting [3] is > 100%.
